The assay has as its target mu opioid receptor (Rattus norvegicus, UniProt P33535). As to the kind of experiment: competitive radio receptor binding assay, [3H]DAMGO, rat brain membranes. The note with it: 1 mg/ml (14.7 mM) imidazole.

“Also recorded” adds a separate entry of the source.

Results on one compound are retold here after PMC3607207 (ACS combinatorial science, 2012).

Sequence of mu opioid receptor (P33535 whole entry): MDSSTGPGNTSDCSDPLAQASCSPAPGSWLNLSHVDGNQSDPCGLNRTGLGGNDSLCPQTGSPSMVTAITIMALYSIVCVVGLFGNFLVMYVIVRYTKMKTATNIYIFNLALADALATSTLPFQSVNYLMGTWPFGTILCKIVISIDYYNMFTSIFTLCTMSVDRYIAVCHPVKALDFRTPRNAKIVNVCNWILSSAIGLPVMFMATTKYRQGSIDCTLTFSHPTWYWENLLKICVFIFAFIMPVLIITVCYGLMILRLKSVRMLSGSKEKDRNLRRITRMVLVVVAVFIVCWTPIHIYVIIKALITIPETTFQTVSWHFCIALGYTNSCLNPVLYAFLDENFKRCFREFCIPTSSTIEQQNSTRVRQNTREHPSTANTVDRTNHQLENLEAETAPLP

On to `c1c[nH]cn1` [imidazole], for which the “effect on binding of 3H-DAMGO to the mu opioid receptor” value was “negligible inhibition; also recorded: No significant effect”.
